Results as given in the COVID Moonshot data (paper PMC11187573), “Identification of SARS-CoV-2 Mpro inhibitors through deep reinforcement learning for de novo drug design and computational chemistry approaches” (RSC Medicinal Chemistry, 2024).
pIC50: −log10 of the molar value.

Columns and labels:
[1] = molecular target: SARS-CoV-2 Main Protease (SARS-CoV-2) (UniProt P0DTD1)
[2] = molecular target: SARS-CoV-2 Main Protease (SARS-CoV-2) (UniProt P0DTD1); remark: listed apart in the source

Structure (SMILES) | inhibition ([1]; 20.0 µM) | inhibition ([1]; 50.0 µM) | inhibition ([2]; 50.0 µM) | relative solubility at 20 uM | relative solubility at 100 uM | inhibition ([2]; 20.0 µM) | pIC50 [2]
Cc1ccncc1NC(=O)C12CCC(CO1)C2 (stereo unspecified) | -5.84% | 9.66% | 0% | 1.01 | 1 |  | 
Nc1ncc(S(=O)(=O)NCc2cccc(Cl)c2)cn1 | 5.4% | -6.16% | 6.76% | 1 | 0.97 |  | 
C=CC(=O)N(c1ccc(C(C)(C)C)cc1)C(C(=O)NC(C)(C)C)c1cncc(Br)c1 (stereo unspecified) | 14.6% | -13.8% | 0% | 0.99 | 0.97 | 0% | 
O=C(NCc1ccns1)Nc1cccc(CN2CCCC2=O)c1 | -0.28% | -2.05% | 0% | 1 | 0.97 | 0% | 
C=CC(=O)N(c1ccc(C2(C)CC2)cc1)C(C(=O)Nc1ccc(OC)cc1)c1cccnc1 (stereo unspecified) |  | 12.6% | 0% | 0.96 | 0.62 | 0% | 
NC(=O)C1Cc2ccccc2N(CC(=O)Nc2cnccn2)C1 (stereo unspecified) | 0.0292% | 6.19% | 0% | 1 | 0.93 | 0% | 
O=C(c1cc(=O)[nH]c2ccc(F)cc12)N1CCN(S(=O)(=O)c2ccc(Cl)cc2)CC1 | -1.84% | 11.4% | 50% | 0.98 | 0.81 |  | 
C=CC(=O)N(c1ccc(C(C)OC)cc1)C(C(=O)NC(C)(C)C)c1cccnc1 (stereo unspecified) | 7.07% | 15.9% |  | 0.98 | 0.86 | 0% | 
NC(=O)C1CCN(c2nnc(C3CCC(=O)N3)n2CCc2cc(F)cc(F)c2)CC1 (stereo unspecified) | 1.27% | 3.83% | 0% | 1 | 1 |  | 
O=C(Nc1cccc(C(=O)N2CCSCC2)c1)C(F)Cl (stereo unspecified) | -13.8% | -16.9% | 0% | 1 | 1 | 0% | 
O=C(CSC1=NCCS1)c1cc(Cl)ccc1Cl | 5.24% | 2.86% | 44.8% | 0.77 | 0.64 |  | 
Cn1cnnc1NC(=O)Cc1cccc(Cl)c1F | 5.1% | -1.13% | -13.1% | 0.98 | 0.99 |  | 
O=C1C(=O)N(Cc2ccccc2)c2cc(Br)ccc21 | 0.852% | -0.164% | 0% | 0.99 | 0.59 |  | 
O=C(NCc1ccc(Cl)cc1CN1CCN(C(=O)CCl)CC1)[C@@H]1CCCOC1 (stereo in doubt) | 56.7% | 77.9% | 100% | 1 | 1 |  | 4.70
COc1ccnc(NC(=O)Cc2ccc3ccccc3c2)c1 | 3.47% | 6.09% | 17.1% | 0.95 | 0.91 | 0% | 
O=C(CCl)N1CC2CC1CN2Cc1cccc(Cl)c1 (stereo unspecified) | 82.2% | 72.7% | 100% | 0.99 | 1 | 100% | 6.18
Cc1ccncc1NC(=O)CCNC(=O)c1ccccc1F |  | -15.8% | 0% | 1 | 1 | 0% | 
C=CC(=O)N(c1ccc(SC)cc1)C(C(=O)NC(C)(C)C)c1cccnc1 (stereo unspecified) | 3.54% | 7.75% |  | 1 | 0.99 | 0% | 
Cc1cc(-c2nc3ccccc3[nH]2)ccc1O | -10.3% | -36.8% | -3.73% | 0.99 | 1 |  | 
CCn1c(=O)n(CC(=O)NCc2cnccn2)c2ccccc21 | 1.73% | 6.74% | 0% | 1 | 1 | 0% | 
CC1(C)Cc2cccc(OCCNC(=O)c3cc(=O)[nH]c4ccc(F)cc34)c2O1 | 13.9% | 23.7% | 42% | 0.98 | 0.84 |  | 
O=C(Cc1c[nH]c2ncccc12)NCc1cccc(Cl)c1 | 7.73% | 9.03% |  | 1 | 0.96 | 1.98% | 
C=CC(=O)N(c1ccc(C(F)(F)F)cc1)C(C(=O)NCCc1cccc(F)c1)c1cncc(Cl)c1 (stereo unspecified) | 50.2% | 68.2% | 82.1% | 0.94 | 0.28 |  | 5.31
Cc1ccc(S(=O)(=O)N2CCN(C(=O)c3cc(=O)[nH]c4ccc(F)cc34)CC2)c(C)c1 | 6.24% | 20.6% | 11.7% | 0.98 | 0.84 |  | 
O=C1Nc2cc(Br)ccc2C1=O | -5.86% | -4.62% | 23.8% | 1 | 1.01 |  | 
CCc1nnnn1-c1ccccc1NC(=O)C1(c2cncc(Br)c2)CC1 |  | 10.2% | 0% | 1 | 1 | 0% | 
O=C1Nc2ccc(Br)cc2C1=O | -2.12% | -1.05% | 66.1% | 1 | 0.99 |  | 4.52
